Laboratory results as given in ChEMBL document CHEMBL4229543, “Squaramides as novel class I and IIB histone deacetylase inhibitors for topical treatment of cutaneous t-cell lymphoma” (Bioorg Med Chem Lett, 2018).
In brackets after ≈: the same amount, converted by molar mass.

Tests used:
[1] = Solubility in PG/EtOH (96%) at 30 mg/mL after 24 hrs by UV-spectrometric method; assay type: physicochemical; settings: PG/EtOH (96%)
[2] = Solubility in pH 7.4 phosphate buffer solution at 100 uM after 24 hrs by HPLC method; assay type: physicochemical; settings: phosphate buffer, pH 7.4
Histone deacetylase 1 [3] = target: T1, Histone deacetylase 1 (Homo sapiens, UniProt Q13547); assay: Inhibition of human recombinant HDAC1 using Fluor de Lys as substrate after 2 hrs by fluorescence method
T1 sequence (Q13547 whole entry): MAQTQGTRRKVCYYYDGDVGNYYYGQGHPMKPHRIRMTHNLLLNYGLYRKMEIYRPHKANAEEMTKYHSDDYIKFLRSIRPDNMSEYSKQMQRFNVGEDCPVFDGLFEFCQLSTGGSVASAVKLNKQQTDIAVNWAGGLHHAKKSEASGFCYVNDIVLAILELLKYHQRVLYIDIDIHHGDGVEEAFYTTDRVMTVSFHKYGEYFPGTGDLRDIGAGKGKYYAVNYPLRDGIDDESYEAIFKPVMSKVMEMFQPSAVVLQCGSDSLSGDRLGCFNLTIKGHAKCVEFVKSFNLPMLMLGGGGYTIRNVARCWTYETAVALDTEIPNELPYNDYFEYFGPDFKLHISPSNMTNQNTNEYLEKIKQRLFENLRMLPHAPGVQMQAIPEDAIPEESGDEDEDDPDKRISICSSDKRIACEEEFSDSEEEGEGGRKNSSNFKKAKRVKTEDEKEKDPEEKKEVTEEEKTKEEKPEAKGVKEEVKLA

HuT78 = assay: Pro-apoptotic activity in human HUT78 cells after 18 hrs by caspase-Glo 3/7 assay; assay type: functional, cell-based; settings: HuT78, 18 h
Histone deacetylase 1 [4] = target: T1, Histone deacetylase 1; assay: Inhibition of human recombinant HDAC1 using fluorogenic HDAC substrate after 15 mins by fluorimetrc method
Histone deacetylase 2 = Histone deacetylase 2 (Homo sapiens, UniProt Q92769); assay: Inhibition of human recombinant HDAC2 using fluorogenic HDAC substrate after 15 mins by fluorimetrc method
Chain of Histone deacetylase 2 (Q92769 whole entry): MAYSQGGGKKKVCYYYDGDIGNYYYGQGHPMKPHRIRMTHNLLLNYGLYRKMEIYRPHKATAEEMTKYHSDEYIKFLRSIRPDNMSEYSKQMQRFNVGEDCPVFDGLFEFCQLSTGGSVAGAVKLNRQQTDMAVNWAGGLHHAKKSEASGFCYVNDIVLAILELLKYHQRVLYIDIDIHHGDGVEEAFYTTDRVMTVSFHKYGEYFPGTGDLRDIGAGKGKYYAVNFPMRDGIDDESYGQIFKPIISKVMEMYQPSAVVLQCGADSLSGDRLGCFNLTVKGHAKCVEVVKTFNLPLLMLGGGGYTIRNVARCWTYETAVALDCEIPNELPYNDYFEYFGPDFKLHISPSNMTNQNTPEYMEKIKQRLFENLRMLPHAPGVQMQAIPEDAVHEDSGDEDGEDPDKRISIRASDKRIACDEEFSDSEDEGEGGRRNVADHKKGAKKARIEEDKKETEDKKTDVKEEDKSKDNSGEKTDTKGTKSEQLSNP

Histone deacetylase 5 = Histone deacetylase 5 (Homo sapiens, UniProt Q9UQL6); assay: Inhibition of human recombinant HDAC5 using fluorogenic HDAC substrate class 2a after 30 mins by fluorimetrc method
Chain of Histone deacetylase 5 (Q9UQL6 whole entry): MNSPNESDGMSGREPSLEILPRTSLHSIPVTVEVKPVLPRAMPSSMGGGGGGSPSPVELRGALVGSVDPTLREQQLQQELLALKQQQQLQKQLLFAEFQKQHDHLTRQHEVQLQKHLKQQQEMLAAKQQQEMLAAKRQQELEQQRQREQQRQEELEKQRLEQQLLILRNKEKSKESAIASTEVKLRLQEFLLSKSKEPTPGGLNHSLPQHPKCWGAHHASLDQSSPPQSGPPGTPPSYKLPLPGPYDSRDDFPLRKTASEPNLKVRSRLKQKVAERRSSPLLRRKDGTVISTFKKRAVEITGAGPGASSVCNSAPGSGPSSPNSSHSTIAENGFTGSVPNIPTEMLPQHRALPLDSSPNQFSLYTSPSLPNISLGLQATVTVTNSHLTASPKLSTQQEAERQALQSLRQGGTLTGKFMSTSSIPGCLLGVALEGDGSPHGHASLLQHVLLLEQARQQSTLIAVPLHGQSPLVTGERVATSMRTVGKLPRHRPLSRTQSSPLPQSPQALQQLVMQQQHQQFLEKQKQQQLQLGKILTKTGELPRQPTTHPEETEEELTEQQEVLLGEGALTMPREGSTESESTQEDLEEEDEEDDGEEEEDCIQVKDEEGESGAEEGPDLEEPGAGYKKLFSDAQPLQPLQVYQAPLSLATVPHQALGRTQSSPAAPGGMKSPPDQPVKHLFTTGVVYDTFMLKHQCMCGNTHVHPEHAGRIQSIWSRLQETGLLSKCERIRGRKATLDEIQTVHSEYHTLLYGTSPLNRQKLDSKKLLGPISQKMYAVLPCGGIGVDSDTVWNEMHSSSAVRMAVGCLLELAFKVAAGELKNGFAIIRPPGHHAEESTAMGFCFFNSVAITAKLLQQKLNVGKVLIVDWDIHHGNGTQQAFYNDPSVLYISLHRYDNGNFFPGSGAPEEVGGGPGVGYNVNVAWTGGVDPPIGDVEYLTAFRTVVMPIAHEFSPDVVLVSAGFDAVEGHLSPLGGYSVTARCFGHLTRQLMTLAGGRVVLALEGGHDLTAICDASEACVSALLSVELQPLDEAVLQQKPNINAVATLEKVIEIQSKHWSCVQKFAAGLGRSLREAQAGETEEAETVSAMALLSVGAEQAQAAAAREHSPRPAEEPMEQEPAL

[5] = target: T2, Polyamine deacetylase HDAC10 (Homo sapiens, UniProt Q969S8); assay: Inhibition of human recombinant HDAC10 using fluorogenic HDAC substrate after 45 mins by fluorimetrc method
T2 sequence (Q969S8 whole entry): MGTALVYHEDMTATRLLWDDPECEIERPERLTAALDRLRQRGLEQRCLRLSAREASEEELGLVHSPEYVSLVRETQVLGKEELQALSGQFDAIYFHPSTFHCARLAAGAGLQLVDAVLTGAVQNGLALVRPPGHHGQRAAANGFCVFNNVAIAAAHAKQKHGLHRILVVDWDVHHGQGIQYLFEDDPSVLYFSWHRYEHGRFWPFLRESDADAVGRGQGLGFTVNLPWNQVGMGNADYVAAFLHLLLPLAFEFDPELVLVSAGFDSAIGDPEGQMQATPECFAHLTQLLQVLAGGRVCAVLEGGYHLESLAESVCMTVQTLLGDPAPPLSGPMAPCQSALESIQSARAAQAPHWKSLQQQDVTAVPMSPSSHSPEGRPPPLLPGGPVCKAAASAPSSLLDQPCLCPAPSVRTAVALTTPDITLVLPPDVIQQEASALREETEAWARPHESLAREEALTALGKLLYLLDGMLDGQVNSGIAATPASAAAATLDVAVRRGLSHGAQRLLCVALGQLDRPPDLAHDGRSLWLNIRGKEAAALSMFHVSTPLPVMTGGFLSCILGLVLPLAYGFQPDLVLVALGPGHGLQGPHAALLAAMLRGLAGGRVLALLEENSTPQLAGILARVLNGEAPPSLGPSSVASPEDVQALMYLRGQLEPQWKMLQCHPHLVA

[6] = target: T3, NAD-dependent protein deacetylase sirtuin-1 (Homo sapiens, UniProt Q96EB6); assay: Inhibition of human recombinant SIRT1 using fluorogenic HDAC substrate after 20 mins by fluorimetrc method
T3 sequence (Q96EB6 whole entry): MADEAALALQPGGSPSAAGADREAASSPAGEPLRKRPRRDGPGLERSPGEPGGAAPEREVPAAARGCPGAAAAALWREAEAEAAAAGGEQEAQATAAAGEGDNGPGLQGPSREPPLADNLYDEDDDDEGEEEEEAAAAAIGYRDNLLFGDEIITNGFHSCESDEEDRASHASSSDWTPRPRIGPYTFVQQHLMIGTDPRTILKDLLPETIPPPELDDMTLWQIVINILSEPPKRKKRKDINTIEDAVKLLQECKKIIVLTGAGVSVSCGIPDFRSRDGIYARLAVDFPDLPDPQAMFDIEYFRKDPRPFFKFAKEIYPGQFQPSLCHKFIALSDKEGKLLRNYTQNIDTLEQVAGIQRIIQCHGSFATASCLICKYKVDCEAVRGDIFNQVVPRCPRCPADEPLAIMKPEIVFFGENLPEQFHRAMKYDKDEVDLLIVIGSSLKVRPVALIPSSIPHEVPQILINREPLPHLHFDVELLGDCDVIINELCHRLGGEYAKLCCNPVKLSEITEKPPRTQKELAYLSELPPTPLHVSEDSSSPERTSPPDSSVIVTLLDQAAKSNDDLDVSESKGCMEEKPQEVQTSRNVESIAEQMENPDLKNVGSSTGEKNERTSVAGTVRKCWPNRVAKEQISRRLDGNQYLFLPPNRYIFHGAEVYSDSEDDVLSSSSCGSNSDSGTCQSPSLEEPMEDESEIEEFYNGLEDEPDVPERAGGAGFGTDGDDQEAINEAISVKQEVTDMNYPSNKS

[7] = target: T4, NAD-dependent protein deacetylase sirtuin-2 (Homo sapiens, UniProt Q8IXJ6); assay: Inhibition of human recombinant SIRT2 using fluoro-lysine sirtuin 2 deacetylase substrate after 60 mins by fluorimetrc method
T4 sequence (Q8IXJ6 whole entry): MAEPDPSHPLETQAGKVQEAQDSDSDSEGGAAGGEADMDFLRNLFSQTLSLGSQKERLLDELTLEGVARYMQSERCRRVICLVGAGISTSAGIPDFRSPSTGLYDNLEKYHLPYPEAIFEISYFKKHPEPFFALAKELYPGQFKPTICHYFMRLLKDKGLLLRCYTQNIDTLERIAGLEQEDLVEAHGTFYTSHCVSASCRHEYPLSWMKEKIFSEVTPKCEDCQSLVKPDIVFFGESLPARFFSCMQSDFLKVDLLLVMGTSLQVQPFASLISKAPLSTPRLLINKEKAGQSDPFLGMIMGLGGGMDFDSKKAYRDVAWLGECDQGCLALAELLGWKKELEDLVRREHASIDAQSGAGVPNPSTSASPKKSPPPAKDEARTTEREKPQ

Histone deacetylase 11 = target: T5, Histone deacetylase 11 (Homo sapiens, UniProt Q96DB2); assay: Inhibition of human recombinant HDAC11 using fluorogenic HDAC substrate class 2a after 30 mins by fluorimetrc method
T5 sequence (Q96DB2 whole entry): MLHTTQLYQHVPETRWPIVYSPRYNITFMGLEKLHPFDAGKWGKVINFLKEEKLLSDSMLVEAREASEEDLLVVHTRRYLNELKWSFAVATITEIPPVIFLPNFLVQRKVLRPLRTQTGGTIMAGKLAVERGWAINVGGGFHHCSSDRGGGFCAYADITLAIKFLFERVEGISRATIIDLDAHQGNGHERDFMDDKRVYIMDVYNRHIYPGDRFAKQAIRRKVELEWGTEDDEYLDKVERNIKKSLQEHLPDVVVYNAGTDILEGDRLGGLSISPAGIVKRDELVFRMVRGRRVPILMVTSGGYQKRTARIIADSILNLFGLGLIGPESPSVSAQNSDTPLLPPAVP

solubility at 24 h [1]	solubility at 24 h, 100 µM [2]	Ki (Histone deacetylase 1 [3])	EC50 (HuT78)	Ki (Histone deacetylase 1 [4])	Ki (Histone deacetylase 2)	Ki (Histone deacetylase 5)	Ki [5]	Ki [6]	Ki [7]	Ki (Histone deacetylase 11)	Structure (SMILES)
300 µM (≈ 104 µg/mL)	3.3 µM (≈ 1.15 µg/mL)	0.075 nM	4.9 nM	0.34 nM	3.1 nM	1000 nM	1.2 nM	> 10000 nM	> 10000 nM	140 nM	COc1ccc(Nc2c(NCCCCCC(=O)NO)c(=O)c2=O)cc1
30000 µM (≈ 12400 µg/mL)	36 µM (≈ 14.9 µg/mL)	0.27 nM	7.3 nM	1 nM	23 nM	360 nM	3 nM	> 10000 nM	> 10000 nM	21 nM	CC(C)(CCCCC(=O)NO)Nc1c(Nc2ccc(C(F)(F)F)cc2)c(=O)c1=O
39000 µM (≈ 15700 µg/mL)	24 µM (≈ 9.68 µg/mL)	3.8 nM	98 nM	48 nM	130 nM	4200 nM	50 nM	> 10000 nM	> 10000 nM	38 nM	CC(Nc1c(NCCCCCC(=O)NO)c(=O)c1=O)C12CC3CC(CC(C3)C1)C2 (stereo not drawn)
